From paper PMC3608532, “Characterization of a Single-Chain Variable Fragment Recognizing a Linear Epitope of Aβ: A Biotechnical Tool for Studies on Alzheimer’s Disease?” (PLoS ONE, 2013) come the findings set out here.

pKd: −log10 of the molar value. Some results are limits rather than exact numbers.

Series [1] deals with Aβ(1-42). Briefly: Thioflavin T (ThT) assay of Aβ(1-42) fibrilization. In kind it is biochemical, human. Particulars: for fibrilization of Aβ(1-42), ThT fluorescence: PBS, room temperature, value after 10 h, n = 5. As to the method: 7.5 µM Aβ(1-42) (stock solution of 190 µM in DMSO, freshly prepared before usage) were incubated with 10 µM ThT in PBS in absence or presence of different concentrations of scFv-IC16 (1.5, 3.75 and 7.5 µM) at room temperature for 24 h. In addition, scFv-IC16 (7.5 µM) without Aβ(1-42) was tested under the same conditions as the negative control. For all samples a reference value, generated with PBS and ThT only, was subtracted. […] The plate was covered by an adhesive film preventing evaporation of the sample buffer. Fluorescence recordings were performed every 30 min for 22 h (excitation wavelength 440 nm, emission wavelength 490 nm, Polarstar Optima, BMG, Ortenberg, Germany). The experiments were performed five-fold, and the average of the obtained values as well as the standard deviation was calculated.

In series [2] the test system is Aβ(8-15). The series is described as follows: SPR binding kinetics to immobilized Aβ(8-15). As to the method:
(§1) Binding kinetics were determined by SPR using a Biacore™ X (GE Healthcare, UK). Synthetic Aβ peptides were dissolved in 10 mM NaAc, pH 4.0. The CM5 sensor chip surface (GE Healthcare, UK) was activated using N-ethyl-N′-3 […] carbodiimide (EDC) and N-hydroxysuccinimide (NHS) chemistry followed by 2-(2-pyridinyldithio)ethaneamine hydrochloride (PDEA), in order to introduce a reactive thiol group. Aβ was coupled via the C-terminal cysteine to the chip at a flow rate of 5 µl/min, and the remaining active groups were blocked by injecting cysteine. The immobilization procedure was performed according to manufacturer’s recommendation. All kinetic analyses were performed at a flow rate of 20 µl/min in PBS. Varying concentrations of scFv-IC16 (10 to 5000 nM) and IC16 (10 to 1000 nM) were injected. […] When required, the surface was regenerated by injecting 20 µl 50 mM glycine, pH 11.0. The data evaluation was performed using Biaevaluation Software 4.1.1. ScFv-IC16 data were fitted according to the Langmuir 1∶1 binding model, whereas IC16 data were fitted according to the bivalent binding model. Standard errors of equilibrium dissociation constants (KD) were calculated using standard errors of the corresponding association and dissociation rate constants.
Background: SPR reads the build-up and loss of mass on a sensor chip optically.

The test system of series [3] is Aβ(1-8). Briefly: SPR binding kinetics to immobilized Aβ(1-8). As to the method:
as §1

In series [4] the target is Aβ(3-8). The series is described as follows: SPR binding kinetics to immobilized Aβ(3-8). As to the method:
as §1

Where [5] appears, read: SPR Biacore X, CM5 chip, PBS, 25°C, global fit, scFv-IC16 Langmuir 1:1 model, IC16 bivalent model, ± standard error, SEM.

A word on the pKd: it is −log10 of the Kd, conventionally taken in molar units. Higher therefore signals a small Kd.

Consider “scFv-IC16: single-chain variable fragment (VH-(Gly4Ser)3-VL, His6- and Myc-tag) derived from Aβ binding monoclonal antibody IC16, expressed in E. coli”, for which the “ThT fluorescence of scFv-IC16 only” value in series [1] (7.5 µM scFv-IC16 without Aβ(1-42), negative control, after 10 h) is on record as “did not show ThT fluorescence”. The “fibrilization of Aβ(1-42), ThT fluorescence” value is on record as “completely inhibited” in series [1] (ratio 1:1: 7.5 µM Aβ(1-42) with 7.5 µM scFv-IC16, 10 µM ThT); “reduced the ThT fluorescence significantly” in series [1] (ratio 2:1: 7.5 µM Aβ(1-42) with 3.75 µM scFv-IC16, 10 µM ThT); “reduced the ThT fluorescence significantly” in series [1] (ratio 5:1: 7.5 µM Aβ(1-42) with 1.5 µM scFv-IC16, 10 µM ThT). Also, in series [2], the “interaction with Aβ(8-15)” value was “No interaction”. The k on in series [3] (SPR Biacore X, Aβ peptide coupled via C-terminal cysteine to CM5 chip, PBS, 25°C, 20 µl/min, global fit, scFv-IC16 Langmuir 1:1 model, IC16 bivalent model, ± standard error, SEM) was 3.10±0.02×10^4 M^-1 s^-1; in series [4] (setting [5]), 8.36±0.5×10^3 M^-1 s^-1. Also, the pKd in series [3] (SPR Biacore X, CM5 chip, PBS, 25°C, global fit, scFv-IC16 Langmuir 1:1 model, IC16 bivalent model, standard error from kon and koff errors, SEM) was 6.26; in series [3] (SPR, Langmuir 1:1 binding model), 6.26; in series [4] (SPR Biacore X, CM5 chip, PBS, 25°C, global fit, scFv-IC16 Langmuir 1:1 model, IC16 bivalent model), 5.28; in series [4] (SPR, A2 of Aβ truncated), under 5.30. Moreover, the k off is given as 1.72±0.005×10^−2 s^-1 in series [3] (setting [5]) and 43.9±0.3×10^−3 s^-1 in series [4] (setting [5]).
